Patent US9254308B2, “Kits and methods for the treatment of cancer using gliadin peptides” (BARMARSA RESEARCH LLC, priority 2013, dated 2016)
Where no end group is shown, it is not given here.

Tests used:
NSCLC = settings: Caucasian NSCLC patients; Gottschling 2012; cited from earlier work
A549 NSCLC cells = assay: MTT growth inhibition, A549 cells, 72-hour treatment
Experimental: (§1) Cells were kept at 37° C. in a humidified atmosphere of 5% CO2 and grown until they reached a confluency of 90%. Cells were then washed, trypsinized, and counted using a Coulter counter.
A549 NSCLC cells were maintained and cultured as described above. […] Cells were plated at a density of 10,000 cells/well in 24-well cell culture plates and allowed to adhere for 24 hours. […] All experiments were conducted in sextuplicate. […] Following 72 hours of treatment, growth inhibition was evaluated by the 3-(4,5-dimethylthiazol-2-yl)-2,5-diphenyltetrazolium bromide (MTT) assay (Roche Diagnostics Corporation, Indianapolis, Ind.) according to the manufacturer's instructions. The absorbance at 570 nm was measured using a plate reader (BioTek, Winooski, Vt.).

[1] = test system: PANC-1 pancreatic carcinoma cells; assay: MTT growth inhibition, PANC-1 cells, 72-hour treatment; settings: for Mean absorbance (570 nm): PANC-1, 72 h, 1 μg/mL gefitinib or erlotinib alone
Experimental: as §1
(§2) Cells were plated at a density of 10,000 cells/well in 24-well cell culture plates and allowed to adhere for 24 hours. […] All experiments were conducted in sextuplicate. […] Following 72 hours of treatment, growth inhibition was evaluated by the MTT assay according to the manufacturer's instructions. The absorbance at 570 nm was measured using a plate reader.

[2] = test system: NCI-H1975 NSCLC cells (EGFR L858R, T790M); assay: MTT growth inhibition, NCI-H1975 cells, 72-hour treatment
Experimental: as §1, §2

A549 cells [3] = assay: Cell count, A549 cells, cisplatin 72-hour treatment; format: cell-based, human; settings: A549, 72 h
Experimental: All experiments were conducted in triplicate.

A549 cells [4] = assay: Cell count, A549 cells, 14-day treatment regimen; format: cell-based, human; settings: A549, 14 days; 3.3 μM cisplatin
Experimental: All treatments were conducted in triplicate. […] Media was refreshed with the respective treatments every 72 hours.

[5] = test system: PANC-1 human pancreatic carcinoma cells; assay: Cell count, PANC-1 cells, 5-FU 72-hour treatment; format: cell-based; settings: PANC-1, 72 h
PANC-1 cells = assay: Cell count, PANC-1 cells, 14-day treatment regimen; format: cell-based, human
Experimental: All treatments were conducted in triplicate. […] Media was refreshed with the respective treatments every 72 hours. After 14 days of treatment, cells were trypsinized and counted.

A549 cells [6] = assay: TUNEL apoptosis assay, A549 cells; format: cell-based, human; settings: A549, 72 h, 1 μM gefitinib alone
Experimental: The ability of alpha-gliadin p31-43 to induce apoptosis in cancer cells was assessed. […] Cells were grown in the presence of 5% CO2 at 37° C. in an incubator.
Briefly, A549 cells (1×10^5) were plated in chamber slides and allowed to adhere overnight. […] After the 72-hour treatment, the cells were fixed with 4% formaldehyde in PBS (pH 7.4) for 25 minutes at room temperature, then washed twice for 5 minutes in PBS, permeabilized in 0.2% Triton X-100 solution in PBS for 5 minutes at room temperature, and finally washed twice for 5 minutes in PBS. Apoptosis was measured using the DeadEnd™ Colorimetric TUNEL System (Promega, Madison, Wis.) according to the manufacturer's instructions. At the end of the assay, the cells were mounted and observed under the microscope.

[7] = test system: A549 human lung cancer xenograft; assay: A549 human lung cancer xenograft model, tumor volume; format: in vivo, nude mice; settings: alone or with 200 μg gliadin i.v.; for Mean Tumor Volume: 150 mg/kg gefitinib by gavage once daily 14 days
Description: Six-week old female nude mice (Harlan Laboratories, Indianapolis, Ind.) were quarantined for 3 days and housed 5 mice per cage, with a 12-hour light-dark cycle, and a relative humidity of 50%. Drinking water and diet were supplied to the animals ad libitum. All animals were housed under pathogen-free conditions. […] The animals were monitored for two weeks following the 14-day treatment period. Tumor measurements were initiated as soon as the tumor formed a palpable mass and measured twice weekly.

[8] = test system: 5-FU-resistant PANC-1 cells; assay: Cell count, surviving 5-FU-resistant PANC-1 cells, 7-day gliadin treatment; format: cell-based, human; settings: 100 μg/mL or 200 μg/mL for 7 additional days
Experimental: In order to examine the effects of alpha-gliadin peptide p31-43 on PANC-1 cells exposed to 5-FU for an extended period of time (14 days), an experiment was conducted on the surviving, i.e., resistant, cell population (4%) from the previous experiment. Briefly, after counting viable cells on day 14 of treatment, surviving cells were replated at a density of 5,000 cells per well. The following day, cells were treated with vehicle or 100 μg/mL or 200 μg/mL of alpha-gliadin peptide p31-43. Media containing the respective treatments was refreshed on day 3 and 6. On day 7, cells were trypsinized and counted.

[9] = Toxicity in BALB/c mice (body weight, behavior, deaths); format: in vivo; settings: female BALB/c mice
Experimental: The toxicity of alpha-gliadin peptide p31-43 in animals was evaluated. Five- to six-week old female BALB/c mice were dosed with vehicle (100 μL DMSO/saline) administered subcutaneously once a day for five days (Group 1) or 200 μg of alpha-gliadin peptide p31-43 in vehicle administered subcutaneously once a day for five days (Group 2). To prepare the gliadin solution, 70 μL of sterile DMSO was added to 1 mg of alpha-gliadin peptide p31-43 and vortexed to dissolve the peptide. After the peptide was dissolved, 430 μL of sterile 0.9% sodium chloride was added and vortexed to create a 1000 μg/500 μL solution of alpha-gliadin peptide p31-43.
Toxicity was evaluated using daily weight measurements and behavior assessments. […] At the end of the study, the mean body weights (±SE) were 19.8±0.4 grams for Group 1 (n=5) and 20.0±0.3 grams for Group 2 (n=5). […] Alpha-gliadin peptide p31-43 was therefore tolerated at a dosing level of 10 mg/kg/day without apparent toxicity.

[10] = 200 μg subcutaneously once a day for five days

C#Cc1cccc(Nc2ncnc3cc(OCCOC)c(OCCOC)cc23)c1 [erlotinib]
patients exhibiting significant changes in disease progression following therapy (NSCLC): about 10% | % Inhibition (A549 NSCLC cells): 3.4% | Mean absorbance (570 nm) (A549 NSCLC cells): 1.44 | % Inhibition [1]: 0% | Mean absorbance (570 nm) [1]: 1.98 | Mean absorbance (570 nm) [2]: 1.73

N.N.[Cl][Pt][Cl] [cisplatin]
% Inhibition (A549 cells [3]; cisplatin 0.103 μM): 13.5% | Mean Cell (A549 cells [3]; cisplatin 0.103 μM): 166,883 | % Inhibition (A549 cells [3]; cisplatin 0.207 μM): 21.8% | Mean Cell (A549 cells [3]; cisplatin 0.207 μM): 150,917 | % Inhibition (A549 cells [3]; cisplatin 0.413 μM): 42.0% | Mean Cell (A549 cells [3]; cisplatin 0.413 μM): 111,917 | % Inhibition (A549 cells [3]; cisplatin 0.825 μM): 74.9% | Mean Cell (A549 cells [3]; cisplatin 0.825 μM): 48,400 | % Inhibition (A549 cells [3]; cisplatin 1.650 μM): 91.6% | Mean Cell (A549 cells [3]; cisplatin 1.650 μM): 16,117 | % Inhibition (A549 cells [3]; cisplatin 3.300 μM): 94.8% | Mean Cell (A549 cells [3]; cisplatin 3.300 μM): 10,033 | % Inhibition (A549 cells [4]): 98% | Mean Cell Number/mL (A549 cells [4]): 5,780 /mL

O=c1[nH]cc(F)c(=O)[nH]1 [5-FU, 5-Fluorouracil]
inhibition at 6.25 µM ([5]; Homo sapiens, 5-FU 6.25 μM): 63.3% | inhibition at 12.5 µM ([5]; Homo sapiens, 5-FU 12.5 μM): 63% | inhibition at 25 µM ([5]; Homo sapiens, 5-FU 25.0 μM): 62.8% | inhibition at 50 µM ([5]; Homo sapiens, 5-FU 50.0 μM): 63% | inhibition at 100 µM ([5]; Homo sapiens, 5-FU 100.0 μM): 68.5% | inhibition at 200 µM ([5]; Homo sapiens, 5-FU 200.0 μM): 73.6% | inhibition at 400 µM ([5]; Homo sapiens, 5-FU 400.0 μM): 79.2% | Mean Cell Number/mL ([5]; 5-FU 6.25 μM): 116,500 /mL | Mean Cell Number/mL ([5]; 5-FU 12.5 μM): 117,500 /mL | Mean Cell Number/mL ([5]; 5-FU 25.0 μM): 118,200 /mL | Mean Cell Number/mL ([5]; 5-FU 50.0 μM): 100,200 /mL | Mean Cell Number/mL ([5]; 5-FU 100.0 μM): 117,600 /mL | Mean Cell Number/mL ([5]; 5-FU 200.0 μM): 83,900 /mL | Mean Cell Number/mL ([5]; 5-FU 400.0 μM): 66,200 /mL | inhibition at 6.25 µM (PANC-1 cells; Homo sapiens, 336 h, PANC-1, 14 days, 6.25 μM 5-FU): 96% | Mean Cell Number/mL (PANC-1 cells; PANC-1, 14 days, 6.25 μM 5-FU): 33,233 /mL | surviving 5-FU-resistant population remaining viable, of the initial population (PANC-1 cells; PANC-1, following 14-day 5-FU treatment): 4%

COc1cc2ncnc(Nc3ccc(F)c(Cl)c3)c2cc1OCCCN1CCOCC1 [gefitinib]
Mean % apoptotic (A549 cells [6]): 19% | tumor doubling time ([7]; A549 xenograft, 150 mg/kg gefitinib): 24.48 days | Mean Tumor Volume ([7]; Study Day 4 (dosing period)): 47.74 ± 2.87 mm^3 | Mean Tumor Volume ([7]; Study Day 7 (dosing period)): 51.67 ± 5.69 mm^3 | Mean Tumor Volume ([7]; Study Day 11 (dosing period)): 49.30 ± 3.77 mm^3 | Mean Tumor Volume ([7]; Study Day 14 (dosing period)): 60.43 ± 5.35 mm^3 | Mean Tumor Volume ([7]; Study Day 18 (recovery period)): 75.40 ± 9.05 mm^3 | Mean Tumor Volume ([7]; Study Day 21 (recovery period)): 95.22 ± 11.15 mm^3 | Mean Tumor Volume ([7]; Study Day 25 (recovery period)): 157.69 ± 14.76 mm^3 | Mean Tumor Volume ([7]; Study Day 28 (recovery period, termination), 150 mg/kg): 239.25±32.78 mm^3 | patients exhibiting significant changes in disease progression following therapy (NSCLC): about 10% | Mean absorbance (570 nm) (A549 NSCLC cells): 1.35 | Mean absorbance (570 nm) [1]: 2.11

LGQQQPFPPQQPY [gliadin, alpha-gliadin peptide p31-43]
cell proliferation of surviving 5-FU-treated PANC-1 cells [8]: cell proliferation was significantly suppressed | behavior changes compared to control mice [9, 10]: No behavior changes were observed | treatment-related deaths [9, 10]: no treatment-related deaths | mean body weight (±SE) at the end of the study ([9]; 200 μg subcutaneously once a day for five days, n=5): 20.0±0.3 grams | NOAEL at 120 h ([9]; mouse, in vivo, sc, 200 ug, subcutaneously, five days, read-out: dosing level tolerated without apparent toxicity): 10 mg/kg/day
